The target in assay [1] is T1, Protein fem-1 homolog B/Histone deacetylase 1 (Homo sapiens, UniProt Q13547+Q9UK73). The experiment in a line: PROTAC activity at FEM1B/HDAC1 in human MM1.S cell lysate assessed as initial degradation at 1 uM measured after 24 hrs by Western immunoassay. Type of assay: subcellular.
Assay [2] concerns the target T1, Protein fem-1 homolog B/Histone deacetylase 1. The experiment in a line: PROTAC activity at FEM1B/HDAC1 in human MM.1S cell lysate assessed as maximal initial degradation at measured after 24 hrs by Western immunoassay relative to control. Type of assay: subcellular. Conditions: MM1.S.
Assay [3] has the same target. The experiment in a line: PROTAC activity at FEM1B/HDAC1 in human MM1.S cell lysate assessed as protein degradation at 1 uM measured after 24 hrs by Western immunoassay. Format: subcellular.
For assay [4], the target named is Protein fem-1 homolog B/Histone deacetylase 2 (Homo sapiens) (UniProt Q92769+Q9UK73). The experiment in a line: PROTAC activity at FEM1B/HDAC2 in human MM1.S cell lysate assessed as protein degradation at 1 uM measured after 24 hrs by Western immunoassay. Format: subcellular.
In assay [5] the target is Protein fem-1 homolog B/Histone deacetylase 3 (Homo sapiens) (UniProt O15379+Q9UK73). The experiment in a line: PROTAC activity at FEM1B/HDAC3 in human MM1.S cell lysate assessed as protein degradation at 1 uM measured after 24 hrs by Western immunoassay. Format: subcellular.
Chain of Protein fem-1 homolog B/Histone deacetylase 3 (Homo sapiens) (O15379 whole entry, looked up): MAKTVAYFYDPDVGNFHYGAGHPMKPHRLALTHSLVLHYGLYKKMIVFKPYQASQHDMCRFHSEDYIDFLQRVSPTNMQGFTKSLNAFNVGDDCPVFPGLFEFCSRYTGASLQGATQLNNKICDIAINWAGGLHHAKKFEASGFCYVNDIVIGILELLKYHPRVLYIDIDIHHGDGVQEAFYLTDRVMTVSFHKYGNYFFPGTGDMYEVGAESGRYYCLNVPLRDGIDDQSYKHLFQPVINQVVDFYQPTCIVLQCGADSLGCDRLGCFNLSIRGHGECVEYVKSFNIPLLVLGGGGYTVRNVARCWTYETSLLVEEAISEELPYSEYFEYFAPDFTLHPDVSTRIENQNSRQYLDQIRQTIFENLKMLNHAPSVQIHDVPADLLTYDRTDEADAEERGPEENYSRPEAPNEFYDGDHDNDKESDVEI
Chain of Protein fem-1 homolog B/Histone deacetylase 3 (Homo sapiens) (Q9UK73 whole entry, looked up): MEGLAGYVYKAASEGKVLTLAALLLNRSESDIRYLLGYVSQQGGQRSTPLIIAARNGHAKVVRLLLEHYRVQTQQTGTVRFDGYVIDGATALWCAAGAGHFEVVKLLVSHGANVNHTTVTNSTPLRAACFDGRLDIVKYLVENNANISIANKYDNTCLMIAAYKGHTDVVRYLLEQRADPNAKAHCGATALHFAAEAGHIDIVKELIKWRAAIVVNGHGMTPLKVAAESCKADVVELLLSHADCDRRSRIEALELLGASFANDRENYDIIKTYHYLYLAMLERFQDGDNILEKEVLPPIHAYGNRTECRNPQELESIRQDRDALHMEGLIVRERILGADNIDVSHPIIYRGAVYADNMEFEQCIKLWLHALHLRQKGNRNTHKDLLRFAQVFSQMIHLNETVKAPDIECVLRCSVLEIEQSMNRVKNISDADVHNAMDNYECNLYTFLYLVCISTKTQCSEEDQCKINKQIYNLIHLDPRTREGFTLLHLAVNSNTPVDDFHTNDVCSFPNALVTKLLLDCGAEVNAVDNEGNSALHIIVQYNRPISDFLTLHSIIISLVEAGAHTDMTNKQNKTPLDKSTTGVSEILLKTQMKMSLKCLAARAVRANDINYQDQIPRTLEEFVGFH
Assay [6] concerns the target Protein fem-1 homolog B/Protein deacetylase HDAC6 (Homo sapiens) (UniProt Q9UBN7+Q9UK73). The experiment in a line: PROTAC activity at FEM1B/HDAC6 in human MM1.S cell lysate assessed as protein degradation at 1 uM measured after 24 hrs by Western immunoassay. Format: subcellular.
The target in assay [7] is Protein fem-1 homolog B/Histone deacetylase 4 (Homo sapiens) (UniProt P56524+Q9UK73). The experiment in a line: PROTAC activity at FEM1B/HDAC4 in human MM1.S cell lysate assessed as protein degradation at 1 uM measured after 24 hrs by Western immunoassay. Type of assay: subcellular.
Assay [8] addresses Protein fem-1 homolog B/Histone deacetylase 8 (Homo sapiens) (UniProt Q9BY41+Q9UK73). The experiment in a line: PROTAC activity at FEM1B/HDAC8 in human MM1.S cell lysate assessed as protein degradation at 1 uM measured after 24 hrs by Western immunoassay. Format: subcellular.
For assay [9], the target named is T1, Protein fem-1 homolog B/Histone deacetylase 1. The experiment in a line: PROTAC activity at FEM1B/HDAC1 in human MM1.S cell lysate assessed as neddylation-dependent protein degradation at 1 uM in presence of vorinostat measured after 24 hrs by Western immunoassay. Format: subcellular.
Assay [10] has the same target. The experiment in a line: PROTAC activity at FEM1B/HDAC1 in human MM1.S cell lysate assessed as neddylation-dependent protein degradation at 1 uM in presence of MLN4924 measured after 24 hrs by Western immunoassay. Format: subcellular.
Assay [11] shares this target. The experiment in a line: PROTAC activity at FEM1B/HDAC1 in human MV4-11 cell lysate assessed as protein degradation at 10 uM measured after 24 hrs by Western immunoassay relative to control. Type of assay: subcellular.
Assay [12] has the same target. The experiment in a line: PROTAC activity at FEM1B/HDAC1 in human MDA-MB-231 cell lysate assessed as protein degradation at 10 uM measured after 24 hrs by Western immunoassay relative to control. Format: subcellular.
For assay [13] the target is unchanged. The experiment in a line: PROTAC activity at FEM1B/HDAC1 in human U-87 MG cell lysate assessed as protein degradation at 10 uM measured after 24 hrs by Western immunoassay relative to control. Type of assay: subcellular.
For assay [14], the system named is MM1.S. The experiment in a line: Induction of cell cycle arrest in human MM1.S cells assessed as reduction in cells at […] phase at 10 uM measured after 48 hrs by propidium iodide based flow cytometry. Format: functional.
Assay [15] deals with MM1.S. The experiment in a line: Induction of cell cycle arrest in human MM1.s cells assessed as increase in cells at Sub-G1 phase at 10 uM measured after 48 hrs by propidium iodide based flow cytometry. Type of assay: functional. For orientation: A flow cytometer gives signals particle by particle.
For assay [16], the system named is MM1.S. The experiment in a line: Induction of apoptosis in human MM1.S cells assessed as increase in early apoptotic cells at 10 uM measured after 48 hrs by annexin V-FITC/PI staining based assay. Type of assay: functional, cell-based.
The subject of assay [17] is MM1.S. The experiment in a line: Induction of apoptosis in human MM1.S cells assessed as increase in late apoptotic cells at 10 uM measured after 48 hrs by annexin V-FITC/PI staining based assay. Format: functional, cell-based.
Assay [18] deals with Protein fem-1 homolog B/Lysine-specific histone demethylase 1A (Homo sapiens) (UniProt O60341+Q9UK73). The experiment in a line: PROTAC activity at FEM1B/KDM1A (LSD1) in human MM1.S cell lysate assessed as protein degradation at 0.5 uM measured after 6 hrs by global quantitative proteomics analysis. Format: subcellular.
Chain of Protein fem-1 homolog B/Lysine-specific histone demethylase 1A (Homo sapiens) (Q9UK73 whole entry, looked up, other chains not shown): as the sequence (Q9UK73 whole entry, looked up) above
Assay [19] concerns the target Protein fem-1 homolog B/REST corepressor 1 (Homo sapiens) (UniProt Q9UKL0+Q9UK73). The experiment in a line: PROTAC activity at FEM1B/RCOR1 in human MM1.S cell lysate assessed as protein degradation at 0.5 uM measured after 6 hrs by global quantitative proteomics analysis. Format: subcellular.
Assay [20] concerns the target Protein fem-1 homolog B/REST corepressor 3 (Homo sapiens) (UniProt Q9P2K3+Q9UK73). The experiment in a line: PROTAC activity at FEM1B/RCOR3 in human MM1.S cell lysate assessed as protein degradation at 0.5 uM measured after 6 hrs by global quantitative proteomics analysis. Format: subcellular.
In assay [21] the target is Protein fem-1 homolog B//Paired amphipathic helix protein Sin3a (Homo sapiens) (UniProt Q9UK73+Q96ST3). The experiment in a line: PROTAC activity at FEM1B/SIN3A in human MM1.S cell lysate assessed as protein degradation at 0.5 uM measured after 6 hrs by global quantitative proteomics analysis. Type of assay: subcellular.
For assay [22], the target named is Protein fem-1 homolog B/Nuclear receptor corepressor 1 (Homo sapiens) (UniProt O75376+Q9UK73). The experiment in a line: PROTAC activity at FEM1B/NCOR1 in human MM1.S cell lysate assessed as protein degradation at 0.5 uM measured after 6 hrs by global quantitative proteomics analysis. Format: subcellular.
For assay [23], the target named is Protein fem-1 homolog B//Mesoderm induction early response protein 1 (Homo sapiens) (UniProt Q9UK73+Q8N108). The experiment in a line: PROTAC activity at FEM1B/MIER1 in human MM1.S cell lysate assessed as protein degradation at 0.5 uM measured after 6 hrs by global quantitative proteomics analysis. Format: subcellular.

Calls of active or inactive are those of the source. The rule behind the calls is not given here.

T1 sequence (Q13547 whole entry, looked up): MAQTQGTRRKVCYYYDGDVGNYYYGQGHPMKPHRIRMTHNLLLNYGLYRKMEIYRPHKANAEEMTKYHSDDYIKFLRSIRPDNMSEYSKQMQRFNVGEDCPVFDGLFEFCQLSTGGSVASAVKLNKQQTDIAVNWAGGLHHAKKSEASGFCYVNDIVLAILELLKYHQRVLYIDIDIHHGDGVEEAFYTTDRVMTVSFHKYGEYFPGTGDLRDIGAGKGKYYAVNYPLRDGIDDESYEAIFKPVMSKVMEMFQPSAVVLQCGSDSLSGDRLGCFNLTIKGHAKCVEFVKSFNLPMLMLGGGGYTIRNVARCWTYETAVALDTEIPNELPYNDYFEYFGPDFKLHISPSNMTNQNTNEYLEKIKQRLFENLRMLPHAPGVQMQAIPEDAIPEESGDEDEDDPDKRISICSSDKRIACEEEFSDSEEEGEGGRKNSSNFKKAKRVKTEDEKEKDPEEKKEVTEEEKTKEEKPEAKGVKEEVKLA
T1 sequence (Q9UK73 whole entry, looked up): as the sequence (Q9UK73 whole entry, looked up) above
Chain of Protein fem-1 homolog B/REST corepressor 1 (Homo sapiens) (Q9UK73 whole entry, looked up): as above
Chain of Protein fem-1 homolog B/REST corepressor 1 (Homo sapiens) (Q9UKL0 whole entry, looked up): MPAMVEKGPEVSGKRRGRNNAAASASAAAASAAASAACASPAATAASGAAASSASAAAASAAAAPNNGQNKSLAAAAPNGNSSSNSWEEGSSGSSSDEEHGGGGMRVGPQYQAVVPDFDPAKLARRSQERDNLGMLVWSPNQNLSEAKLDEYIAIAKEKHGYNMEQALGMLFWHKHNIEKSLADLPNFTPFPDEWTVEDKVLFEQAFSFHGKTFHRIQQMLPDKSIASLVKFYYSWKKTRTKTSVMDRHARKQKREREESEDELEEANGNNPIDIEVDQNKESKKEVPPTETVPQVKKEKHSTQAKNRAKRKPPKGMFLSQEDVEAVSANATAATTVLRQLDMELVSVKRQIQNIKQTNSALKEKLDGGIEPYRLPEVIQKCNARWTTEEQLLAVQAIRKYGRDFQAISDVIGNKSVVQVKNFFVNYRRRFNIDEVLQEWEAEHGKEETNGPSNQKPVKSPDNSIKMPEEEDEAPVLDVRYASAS
Chain of Protein fem-1 homolog B/REST corepressor 3 (Homo sapiens) (Q9UK73 whole entry, looked up, other chains not shown): as the sequence (Q9UK73 whole entry, looked up) above

In the case of `N#CCCN(C(=O)CCl)c1ccc2c(c1)OCCN2CC(=O)NCC(=O)Nc1ccc(C(=O)NCCCCCCC(=O)NO)cc1`, the Activity turned out to be 62.3% in assay [1], 87% in assay [11], 53% in [12] and 75% in [13]. Also, the Emax in assay [2] was 85.2%. Besides, the result in [3], in assay [4], in [5], in assay [14], in assay [15] and in [16] was Active. Further, the result in assay [17], in assay [18], in assay [19], in assay [20], in assay [21] and in assay [22] was Active. Further, the result in assay [23] was Active. Besides, the outcome in assay [6], in [7], in assay [8], in [9] and in assay [10] was inactive.

For orientation: Emax means the greatest response seen or fitted, relative to the assay's reference.

The values are drawn from ChEMBL document CHEMBL6087488, “Development of the First-in-Class FEM1B-Recruiting Histone Deacetylase Degraders” (J Med Chem, 2025).
